Assay results published in patent publication US8440660B2 (Santen Pharmaceutical Co., Ltd., priority 2006, dated 2013).

Molecular target: T1, Glucocorticoid Receptor (GR) (Homo sapiens, UniProt P04150)
T1 construct: purchased Invitrogen P2816
T1 sequence (P04150 1-777): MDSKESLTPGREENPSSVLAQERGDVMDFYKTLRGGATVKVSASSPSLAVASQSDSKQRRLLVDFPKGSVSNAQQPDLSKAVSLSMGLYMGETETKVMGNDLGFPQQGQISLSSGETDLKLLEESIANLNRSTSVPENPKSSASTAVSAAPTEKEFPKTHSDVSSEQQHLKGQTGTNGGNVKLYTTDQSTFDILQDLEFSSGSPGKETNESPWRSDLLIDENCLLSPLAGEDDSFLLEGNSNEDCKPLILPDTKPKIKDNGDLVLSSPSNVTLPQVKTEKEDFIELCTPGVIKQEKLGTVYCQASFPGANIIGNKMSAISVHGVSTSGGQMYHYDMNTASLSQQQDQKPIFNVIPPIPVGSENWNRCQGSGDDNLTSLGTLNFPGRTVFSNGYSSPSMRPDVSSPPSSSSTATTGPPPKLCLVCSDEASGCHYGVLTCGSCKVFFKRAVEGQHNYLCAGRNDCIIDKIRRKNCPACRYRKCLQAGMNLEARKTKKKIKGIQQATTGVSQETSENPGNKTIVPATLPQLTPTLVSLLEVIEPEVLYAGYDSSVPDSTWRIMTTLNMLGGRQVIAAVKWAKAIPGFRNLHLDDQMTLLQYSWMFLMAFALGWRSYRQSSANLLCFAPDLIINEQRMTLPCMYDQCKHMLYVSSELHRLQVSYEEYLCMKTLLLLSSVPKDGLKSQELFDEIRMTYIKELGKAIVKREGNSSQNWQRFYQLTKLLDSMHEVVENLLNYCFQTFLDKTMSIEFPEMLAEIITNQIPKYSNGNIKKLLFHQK
Experiment: GR receptor competitor assay by fluorescence polarization (Invitrogen GR competitor assay kit, cat No. P2816)
Settings: 20 μM test compound solution, 10 μL per well plus 5 μL 4×GS1 and 5 μL 4×GR solution; recombinant human GR; 2 to 4 hours at room temperature; a ratio of 100% or more is indicated by 100%; read-out: GR Binding ratio (%)
Experimental: A detailed explanation of this matter will be described in the section of “Pharmacological Test” in Examples described below. In order to find the usefulness of the present compound as a pharmaceutical, a glucocorticoid receptor competitor assay was carried out by a fluorescence polarization method by using a glucocorticoid receptor competitor assay kit (manufactured by Invitrogen, cat No P2816) to study the glucocorticoid receptor binding activity of the present compound.
1. Evaluation Test for Binding Activity to Glucocorticoid Receptor (Hereinafter Referred to as “GR”)
In order to evaluate a binding activity to GR, a receptor competitor assay was carried out by a fluorescence polarization method. In the assay, a GR competitor assay kit (manufactured by Invitrogen, cat No. P2816) was used, and a procedure was carried out according to the protocol attached to the kit. Hereinafter, the specific method will be described.
(Preparation of Reagents)
GR screening buffer: A buffer containing 10 mM potassium phosphate (pH 7.4), 20 mM sodium molybdate (Na2MoO4), 0.1 mM ethylene diamine tetraacetic acid (EDTA), 5 mM dithiothreitol (DTT), 0.1 mM stabilizing peptide and 2% dimethylsulfoxide was prepared.
4×GS1 solution: Fluormone™ GS1, which is a fluorescent glucocorticoid ligand, was diluted with GR screening buffer, whereby a 4 nM solution was prepared.
4×GR solution: Recombinant human GR was diluted with GR screening buffer, whereby a 16 nM solution was prepared.
(Preparation of Test Compound Solution)
After a test compound was dissolved in dimethylsulfoxide, the resulting solution was diluted with GR screening buffer, whereby a 20 μM test compound solution was prepared.
(Test Method and Measurement Method)
1) The test compound solution was added in an amount of 10 μL into each well of a 384-well plate, and then, 4×GS1 solution and 4×GR solution were added in an amount of 5 μL into each well, respectively.
2) The plate was incubated in a dark place at room temperature for 2 to 4 hours.
3) By using a multimode plate reader, Analyst™ HT (manufactured by LJL Biosystems), fluorescence polarization of each well was measured. As the blank, a well containing GR screening buffer in place of the test compound and 4×GS1 solution was used.
4) The same procedure as that in the above 1) to 3) was carried out except that GR screening buffer was used in place of the test compound solution, and the obtained result was taken as the negative control.
5) The same procedure as that in the above 1) to 3) was carried out except that 2 mM dexamethasone was used in place of the test compound solution, and the obtained result was taken as the positive control.
(Calculation Equation of GR Binding Ratio)
A GR binding ratio (%) was calculated from the following equation. GR binding ratio (%)=100×[1−(fluorescence polarization of test compound solution−fluorescence polarization of positive control solution)/(fluorescence polarization of negative control solution−fluorescence polarization of positive control solution)] (Test Results and Discussion)

Point of comparison: COc1cc(OC(=O)C2CCCCC2)ccc1-c1ccc2c(c1COc1cc(F)ccc1C)C(C)=CC(C)(C)N2 [Compound 1-12, 6-(4-Cyclohexylcarbonyloxy-2-methoxyphenyl)-5-(5-fluoro-2-methylphenoxymethyl)-2,2,4-trimethyl-1,2-dihydroquinoline], inhibition at 10 µM 100%. Against it:
- COc1cc(OC(=O)c2ccccc2)ccc1-c1ccc2c(c1COc1cc(F)ccc1C)C(C)=CC(C)(C)N2 [Compound 1-1, 6-(4-Benzoyloxy-2-methoxyphenyl)-5-(5-fluoro-2-methylphenoxymethyl)-2,2,4-trimethyl-1,2-dihydroquinoline] — lower, 94%
- COc1cc(OC(=O)CNC(=O)OC(C)(C)C)ccc1-c1ccc2c(c1COc1cc(F)ccc1C)C(C)=CC(C)(C)N2 [Compound 1-2, 6-(4-t-Butoxycarbonylaminoacetoxy-2-methoxyphenyl)-5-(5-fluoro-2-methylphenoxymethyl)-2,2,4-trimethyl-1,2-dihydroquinoline] — the same, 100%
- COc1ccc(C(=O)Oc2ccc(-c3ccc4c(c3COc3cc(F)ccc3C)C(C)=CC(C)(C)N4)c(OC)c2)cc1 [Compound 1-6] — the same, 100%
- COc1cccc(C(=O)Oc2ccc(-c3ccc4c(c3COc3cc(F)ccc3C)C(C)=CC(C)(C)N4)c(OC)c2)c1 [Compound 1-7, 5-(5-Fluoro-2-methylphenoxymethyl)-6-[2-methoxy-4-(3-methoxybenzoyloxy)phenyl]-2,2,4-trimethyl-1,2-dihydroquinoline] — the same, 100%
- COc1ccccc1C(=O)Oc1ccc(-c2ccc3c(c2COc2cc(F)ccc2C)C(C)=CC(C)(C)N3)c(OC)c1 [Compound 1-8, 5-(5-Fluoro-2-methylphenoxymethyl)-6-[2-methoxy-4-(2-methoxybenzoyloxy)phenyl]-2,2,4-trimethyl-1,2-dihydroquinoline] — the same, 100%
- COc1cc(OC(=O)c2ccccc2Cl)ccc1-c1ccc2c(c1COc1cc(F)ccc1C)C(C)=CC(C)(C)N2 [Compound 1-11, 6-[4-(2-Chlorobenzoyloxy)-2-methoxyphenyl]-5-(5-fluoro-2-methylphenoxymethyl)-2,2,4-trimethyl-1,2-dihydroquinoline] — the same, 100%
- COc1cc(OC(=O)c2cccnc2)ccc1-c1ccc2c(c1COc1cc(F)ccc1C)C(C)=CC(C)(C)N2 [Compound 1-13, 5-(5-Fluoro-2-methylphenoxymethyl)-6-[2-methoxy-4-(pyridin-3-ylcarbonyloxy)phenyl]-2,2,4-trimethyl-1,2-dihydroquinoline] — the same, 100%
- CCCC(=O)Oc1ccc(-c2ccc3c(c2COc2cc(F)ccc2C)C(C)=CC(C)(C)N3)c(OC)c1 [Compound 1-14, 6-(4-Butyryloxy-2-methoxyphenyl)-5-(5-fluoro-2-methylphenoxymethyl)-2,2,4-trimethyl-1,2-dihydroquinoline] — the same, 100%
- CCC(=O)Oc1ccc(-c2ccc3c(c2COc2cc(F)ccc2C)C(C)=CC(C)(C)N3)c(OC)c1 [Compound 1-16, 5-(5-Fluoro-2-methylphenoxymethyl)-6-(2-methoxy-4-propionyloxyphenyl)-2,2,4-trimethyl-1,2-dihydroquinoline] — the same, 100%
- C=CC(=O)Oc1ccc(-c2ccc3c(c2COc2cc(F)ccc2C)C(C)=CC(C)(C)N3)c(OC)c1 [Compound 1-17, 6-(4-Acryloyloxy-2-methoxyphenyl)-5-(5-fluoro-2-methylphenoxymethyl)-2,2,4-trimethyl-1,2-dihydroquinoline] — the same, 100%
- COc1cc(OC(=O)c2ccsc2)ccc1-c1ccc2c(c1COc1cc(F)ccc1C)C(C)=CC(C)(C)N2 [Compound 1-18, 5-(5-Fluoro-2-methylphenoxymethyl)-6-[2-methoxy-4-(thiophen-3-ylcarbonyloxy)phenyl]-2,2,4-trimethyl-1,2-dihydroquinoline] — the same, 100%
- COc1cc(OC(=O)c2ccco2)ccc1-c1ccc2c(c1COc1cc(F)ccc1C)C(C)=CC(C)(C)N2 [Compound 1-19, 5-(5-Fluoro-2-methylphenoxymethyl)-6-[4-(furan-2-ylcarbonyloxy)-2-methoxyphenyl]-2,2,4-trimethyl-1,2-dihydroquinoline] — the same, 100%
- COc1cc(OC(=O)C(C)C)ccc1-c1ccc2c(c1COc1cc(F)ccc1C)C(C)=CC(C)(C)N2 [Compound 1-20, 5-(5-Fluoro-2-methylphenoxymethyl)-6-(4-isobutyryloxy-2-methoxyphenyl)-2,2,4-trimethyl-1,2-dihydroquinoline] — the same, 100%
- COc1cc(OC(=O)Cc2ccccc2)ccc1-c1ccc2c(c1COc1cc(F)ccc1C)C(C)=CC(C)(C)N2 [Compound 1-21, 5-(5-Fluoro-2-methylphenoxymethyl)-6-(2-methoxy-4-phenylacetoxyphenyl)-2,2,4-trimethyl-1,2-dihydroquinoline] — the same, 100%
- CCC(=O)Oc1ccc(OC)c(-c2ccc3c(c2COc2cc(F)ccc2C)C(C)=CC(C)(C)N3)c1 [Compound 1-27, 5-(5-Fluoro-2-methylphenoxylmethyl)-6-(2-methoxy-5-propionyloxyphenyl)-2,2,4-trimethyl-1,2-dihydroquinoline] — lower, 84%
- COc1cc(OC(=O)c2cccs2)ccc1-c1ccc2c(c1COc1cc(F)ccc1C)C(C)=CC(C)(C)N2 [Compound 1-31, 5-(5-Fluoro-2-methylphenoxymethyl)-6-[2-methoxy-4-(thiophen-2-ylcarbonyloxy)phenyl]-2,2,4-trimethyl-1,2-dihydroquinoline] — the same, 100%
- COc1cc(OC(=O)CCc2ccccc2)ccc1-c1ccc2c(c1COc1cc(F)ccc1C)C(C)=CC(C)(C)N2 [Compound 1-33, 5-(5-Fluoro-2-methylphenoxymethyl)-6-[2-methoxy-4-(3-phenylpropionyloxy)phenyl]-2,2,4-trimethyl-1,2-dihydroquinoline] — lower, 89%
- COc1cc(OC(=O)c2ccoc2)ccc1-c1ccc2c(c1COc1cc(F)ccc1C)C(C)=CC(C)(C)N2 [Compound 1-34, 5-(5-Fluoro-2-methylphenoxymethyl)-6-[4-(furan-3-ylcarbonyloxy)-2-methoxyphenyl]-2,2,4-trimethyl-1,2-dihydroquinoline] — the same, 100%
- COc1cc(OC(=O)c2ccccn2)ccc1-c1ccc2c(c1COc1cc(F)ccc1C)C(C)=CC(C)(C)N2 [Compound 1-35, 5-(5-Fluoro-2-methylphenoxymethyl)-6-[2-methoxy-4-(pyridin-2-ylcarbonyloxy)phenyl]-2,2,4-trimethyl-1,2-dihydroquinoline] — the same, 100%
- COc1cc(OC(=O)c2ccc([N+](=O)[O-])cc2)ccc1-c1ccc2c(c1COc1cc(F)ccc1C)C(C)=CC(C)(C)N2 [Compound 1-40, 5-(5-Fluoro-2-methylphenoxymethyl)-6-[2-methoxy-4-(4-nitrobenzoyloxy)phenyl]-2,2,4-trimethyl-1,2-dihydroquinoline] — the same, 100%
- COc1cc(OC(=O)c2ccncc2)ccc1-c1ccc2c(c1COc1cc(F)ccc1C)C(C)=CC(C)(C)N2 [Compound 1-43, 5-(5-Fluoro-2-methylphenoxymethyl)-6-[2-methoxy-4-(pyridin-4-ylcarbonyloxy)phenyl]-2,2,4-trimethyl-1,2-dihydroquinoline] — the same, 100%
